Test results taken from paper PMC11994961, “In Vivo pharmacokinetic interactions of ribociclib with rivaroxaban and apixaban in rats: implications for increased drug exposure and dose adjustments” (Frontiers in Pharmacology, 2025).

How the values were obtained:
[1] = system: Cyp3a1(CYP3A4) mRNA in the liver; experiment: qRT-PCR mRNA expression in rat liver after ribociclib; format: in vivo; conditions: rats, ribociclib continuously for 8 days
Description: qRT-PCR analysis was used to determine the mRNA levels of Cyp3a1(CYP3A4) in the liver and Abcb1a (P-gp), Cyp3a1(CYP3A4), Abcg2(BCRP) in the intestines. Total RNA was extracted from frozen liver and intestine samples using the TRNzol Universal reagent, following the manufacturer’s instructions. The Bio Tek Epoch (Bio Tek Instruments, Inc., Winooski, VT, United States) was used to quantify the purity and concentration of the total RNA, based on the ratio of the absorbance at 260 and 280 nm. The RNA samples, each containing 1 µg of material, were converted to complementary DNA (cDNA) using the FastKing RT Kit. The real-time PCR assays were performed using a two-step amplification protocol on the SLAN-96S Real-Time PCR system (Shanghai Hongshi Medical Technology Co., Ltd., Shanghai, China). […] was employed as an internal control, and the PCR cycling criteria were as follows: 95°C for 15 min, followed by 40 cycles of 95°C for 10 s and 60°C for 32 s.

CYP3A4/5 = system: CYP3A4/5; design: method as in Mueck et al., 2013; conditions: ref Mueck et al., 2013; cited from earlier work

| SMILES | mRNA expression of Cyp3a1 in the liver [1] | share of total elimination by CYP3A4/5 (CYP3A4/5) |
| --- | --- | --- |
| CN(C)C(=O)c1cc2cnc(Nc3ccc(N4CCNCC4)cn3)nc2n1C1CCCC1 [RIBO, ribociclib] | no significant changes |  |
| O=C(NC[C@H]1CN(c2ccc(N3CCOCC3=O)cc2)C(=O)O1)c1ccc(Cl)s1 [RIVA, rivaroxaban] |  | approximately 18% |
